# Experimental data taken from patent US20240299358A1, “COMPOSITIONS AND METHODS FOR DIAGNOSIS AND TREATMENT OF AUTOIMMUNE DISEASES” (DUKE UNIVERSITY, priority 2021, published 2024).
# Entries after “also recorded” stand apart in the source; their conditions may differ.
# Experiments:
# [1] = test system: Human CD3+ T cells; test: Cytokine expression after anti-CD3/28 T cell stimulation with or without HS-131; type: cell-based; details: HS-131 1 μM, 24 hours, vs vehicle
# Procedure: The data were analyzed by 2-way ANOVA with Sidak's multiple comparison test, * p<0.05, ** p<0.01. *** p<0.001. Experiments were performed with 6 biological replicates. […] Experiments were performed with 3 biological replicates for each timepoint. […] Experiments were performed with 3 biological replicates for each timepoint. […] Temporal upregulation of eHsp90 (green line) post T cell stimulation. CD25 expression: 6-8 biological replicates per time point. eHsp90 expression 6 biological replicates for each timepoint. […] Data represent mean ±SD. The data were analyzed by 2-way ANOVA with Sidaks multiple comparison test. Experiments were performed once with 3 biological replicates. […] Data represent mean ±SEM. […] Experiment was performed once with 4 biological replicates.
# Next, the expression of eHsp90 and total Hsp90 over the course of T cell activation was tracked. Both total Hsp90 cellular content and eHsp90 expression in anti-CD3/28 stimulated human PBMCs were evaluated. […] Specifically, anti-CD3/28 stimulation caused eHsp90 up regulation in CD69+/CD25+ and CD69+/CD25− T-cell populations with a 5-8 fold increase within the first 24 hours post activation, whereas CD69−/CD25− T cells show no increase in probe or eHsp90 levels (see. FIG. 3B). […] One candidate client eHsp90 protein is CD25, the IL-2 receptor. […] Here it was observed that CD25 expression peaked at 72 hours post activation, followed by a reduction in expression thereafter which correlates with reduced eHsp90 expression (see. FIG. 3D). Due to the tight correlation of CD25 and eHsp90 expression, it further tested whether exogenous IL-2 stimulation could maintain high expression of both proteins in activated T cells 72-96 hours post-stimulation. […] Due to IL-2's ability to enhance eHsp90 expression in activated cells, the impacts of eHsp90 inhibition in activated T cells on inflammatory signaling were investigated. Human CD3+ T cells were stimulated with CD3/CD28 activating antibodies for 24 hours in the presence of HS-131. Compared to vehicle treated cells. […] IFNY (p<0.001). IL-17A (p<0.001). MIP-1a/B (p=0.013) and TNF a (p=0.025) (see. FIG. 3F).
# [2] = test system: eHsp90; test: In vivo tracking of eHsp90 expression in CIA mouse model of RA (flow cytometry, CryoViz imaging)
# Procedure: FIG. 5A is a schematic of CIA mouse model of RA experimental design, wherein mice were inoculated with CIA on day 0) and 21. […] 6-hours post treatment mice were whole body cryopreserved. […] Gated regions indicate CD4 and CD8 T-Cell populations isolated from individual mice. eHsp90 expression in CD4 and CD8 T cells 6 hours post HS-131 or HS-198 treatment. N=3+SD. Experiments represent 3 biological replicates.
# CIA Disease: Collagen was prepared at 4 mg/ml in 0.01 N acetic acid. Equal volumes of 4 mg/ml collagen and 5 mg/ml Freund's complete adjuvant were emulsified by hand mixing with syringes for approximately 5 min, at which point a bead of this material holds its form when placed in water. On study days 0 and 21, animals were anesthetized with isoflurane and given intradermal injections of a total of 400 μg of type II collagen in Freund's complete adjuvant at the base of the tail.
# CryoViz™ Imaging: Whole mice were imaged at 10.23 μm×10.23 μm in-plane resolution using an Olympus MVX-10 microscope with a 1X objective and 0.63× magnification and 40 μm section thickness, using the Cryo Viz™ (BioInVision, Inc., Cleveland, USA). CryoViz™ is a fully automated, serial sectioning-and-imaging system which provides 3-dimensional, tiled, microscopic anatomical bright field and molecular fluorescence images over large fields-of-view such as a whole mouse. Images were acquired using a dual band FITC/TxRed fluorescence filter (Chroma, Inc., Rockingham, VT), a liquid crystal RGB filter and a low-noise monochrome camera. Raw images acquired by the Cryo Viz™ were processed to generate 3D color anatomical brightfield and molecular fluorescence volumes using the Cryo Viz™ Preprocessor software (BioIn Vision, Inc., Cleveland, Ohio). These 3D volumetric image data were then processed using the CryoViz™ 3D Visualizer software (BioInVision, Inc., Cleveland, USA) to obtain 3D reconstructed brightfield and fluorescence volume renderings and movies with 2D slice cutaway animations, showing the 2D/3D biodistribution of TxRed labeled HS-131 within the mouse volume.
# This was consistently seen in cell culture, tumor cell xenografts and mouse models of spontaneous metastatic disease (Barrott et al. Chem Biol 20. 1187-1197 (2013)). […] To determine if this phenomenon occurred within the context of a fully functional immune system, the collagen induced arthritic (CIA) mouse model of human rheumatoid arthritis (RA) was utilized (Rice et al. Arthritis Rheum 58. 3765-3775 (2008)). Mice (DBA/IlacJ ˜8 weeks old) reliably develop polyarthritis when immunized against bovine type II collagen (Scarneo et al. Arthritis Res Ther 21, 292 (2019): Campbell et al., Ann Rheum Dis 56, 364-368 (1997)). The disease that occurs is usually non-symmetric, and any combination of paws/joints may be affected. Mice were injected […] with bovine collagen at Day (and then again 21 days later (FIG. 5A). This second injection triggered the development of the CIA related symptoms over the next several days within the joints. A primary mediator of local inflammatory responses in autoimmunity are invading T cell populations recognizing foreign antigens. To determine if invading T cells at sites of active disease expressed eHsp90, the animals were injected with HS-131 or HS-198. This was done at the peak of RA symptoms following the second immune challenge. After 6 hours, the animals were euthanized, immediately cryo-frozen in liquid nitrogen and cryo-sectioned (see, FIG. 5A).
# Approximately, 500 40 μm slices were made and each slice imaged with both bright field and by fluorescence at Ex640 nm/Em680 nm. Evaluation of the biodistribution was then made by histological examination of individual slices and after in silico reconstruction of the entire mouse anatomy (see, FIGS. 5B-5E).
smiles,measurement,setting,value
Cc1nn(-c2ccc(C(N)=O)c(NCCCOCCOCCOCCOCCOCCCNCc3ccc(C(=C\C=C4\N(CCCCS(=O)(=O)[O-])c5ccccc5C4(C)C)/C=C/C4=[N+](CCCCS(=O)(=O)O)c5ccccc5C4(C)C)cc3)c2)c2c1C(=O)CC(C)(C)C2 [HS-131],GM-CSF,[1]; p<0.001,significantly reduced
same,IFNY,[1]; p<0.001,significantly reduced
same,IL-17A,[1]; p<0.001,significantly reduced
same,MIP-1a/B,[1]; p=0.013,significantly reduced
same,TNF a,[1]; p=0.025,significantly reduced
same,probe uptake in joints of naïve non diseased animal compared to CIA diseased animal,"[2]; 10 nmoles tail vein, 6 hours post injection (FIGS. 6A-6C)",no marked HS-131 in the joints
same,systemic distribution in whole-body reconstruction of CIA mice,[2]; 6 hours post tail vein injection,largely confined to areas of active immune cell invasion
same,probe signal (eHsp90 expression) in T cells of PBMC populations from CIA mice by flow cytometry,"[2]; 6 hours post tail vein injection, CD4 and CD8 T cells (FIG. 5B)",pronounced eHsp90 expression
same,"probe localization in hind leg, knee, hip and paw of CIA mouse","[2]; 6 hours post tail vein injection, cryo-sections (FIG. 5C)",marked increase
same,fluorescence associated with the lower intestine of CIA mice,[2]; 24 hours post HS-131 injection (FIG. 7B),no discrete fluorescence
same,route of elimination / clearance,[2]; mice,via the hepatobiliary system and intestines; also recorded: exclusively eliminated through the biliary system and intestine; also recorded: rapid hepatobiliary clearance
